Reference: publication PMC11921344, “Antimicrobial peptide DiPGLa-H exhibits the most outstanding anti-infective activity among the PGLa variants based on a systematic comparison” (Applied and Environmental Microbiology, 2025)
Read-outs that look alike come from different tables or passages of the source. Where no end group is shown, it is not given here.

Legend:
[1] = system: E. coli K88; test: Time-kill (bactericidal) curve; assay type: cell-based, Escherichia coli; conditions: four times MIC, TSB, 37°C
Protocol: (§1) The antibacterial activity was evaluated using a standard MIC and MBC assay according to the National Committee for Clinical Laboratory Standards (NCCLS). MIC, MBC assay, and time-kill curves for the optimal peptide are provided in the Supplementary Materials.
(§2) The bactericidal curve of the optimal peptide was further determined. […] Each test was replicated at least 3 times.

[2] = system: Gram-negative bacteria; test: Geometric mean MIC and therapeutic index, Gram-negative; assay type: cell-based; conditions: geometric mean of the peptide MICs against Gram-negative strains
Protocol: as §1
(§3) Antimicrobial Activity Assays. The antibacterial activity of the peptides was determined using a method designed from the National Committee for Clinical Laboratory Standards (NCCLS) in the United States. All the strains used in the experiment are preserved in the laboratory. Briefly, log phase bacterial cells were diluted in MHB to a final concentration of 0.5-1x10^5 CFU/mL. Subsequently, 50μL of different concentrations of polypeptides were incubated with 50 μL of bacterial solution in sterile 96-well plates. In the minimum inhibitory concentration (MIC) assay, the plate was incubated at 37°C for 24 h, and the minimum inhibitory concentration (MIC) was determined by the absorbance at 492 nm of the microplate reader, and the minimum inhibitory concentration (MIC) inhibited 95% of bacteria grow. Determination of minimum bactericidal concentration: the plate was incubated at 37°C for 4 hours, 50 μL of the mixture was taken out of each well, diluted with an appropriate amount of PBS, smeared on the agar plate, and cultured overnight. Colonies were counted and the initial CFU/well was retrospectively calculated the following day. The lowest concentration of peptide that kills 99.9% of bacterial cells is the minimum bactericidal concentration (µM), Each test was replicated at least 3 times.

[3] = system: Gram-positive bacteria; test: Geometric mean MIC and therapeutic index, Gram-positive; assay type: cell-based; conditions: geometric mean of the peptide MICs against Gram-positive strains
Protocol: as §1, §3

[4] = system: E. coli K88 infection; test: Mouse abdominal infection model; assay type: in vivo, C57BL/6 mice; conditions: for number of mice that survived: K88+DiPGLa-H
Protocol: (§4) Six-to-eight-week-old C57BL/6 male mice were selected for the experiment and housed in cages under specific pathogen-free conditions with water and laboratory mouse chow. Each strain was divided into three groups, and each group and the second group were required to be injected intraperitoneally with a lethal amount of bacterial fluid with a working fluid concentration of 64 µg/mL of DiPGLa-H, and the third group was injected with PBS. […] Then homogenized and serially diluted with PBS to 10^7 times. 100 µL of the gradient dilution was applied to the TSA plate, which was subsequently incubated at 37°C overnight and counted the next day for survival analysis using GraphPad Prism software. The protocol and use of animals were approved by the Institutional Animal Care and Use Committee of the Northwest A&F University.

[5] = system: S. aureus Mu50 infection; test: Mouse abdominal infection model; assay type: in vivo, C57BL/6 mice; conditions: for number of mice that survived: Mu50+DiPGLa-H
Protocol: as §4

[6] = system: A. baumannii ATCC19606; assay type: cell-based, Acinetobacter baumannii
Protocol: as §1, §3

[7] = system: S. aureus Mu50; test: Time-kill (bactericidal) curve; assay type: cell-based, Staphylococcus aureus MRSA; conditions: four times MIC, TSB, 37°C
Protocol: as §1, §2

[8] = system: S. aureus Mu50; assay type: cell-based, Staphylococcus aureus MRSA; conditions: for MIC S. aureus Mu50: Mu50, 2 h
Protocol: To assess the stability of the peptides in physiological conditions, the peptides were incubated with E. coli K88 and S. aureus Mu50 in the presence of salts (150 mM NaCl, 4.5 mM KCl, 6 µM NH4Cl, 8 µM ZnCl2, 1 mM MgCl2, 4 µM FeCl3, and 2.5 µM CaCl2) in accordance with a previously reported protocol. To determine the thermal stability of the peptides, the peptides were pretreated at 100°C for 30 min, 60 min, and 90 min and cooled on ice for 10 min. The effect of acid and base on the antimicrobial activity was measured by treating the peptides for 2 h at pH of 2, 4, 10, and 12 in 10 mM sodium phosphate buffer adjusted with HCl or NaOH.

[9] = heart, liver, spleen, 1 day after infection, 5 mice per group

KIAKVALKALKIAKVALKAL-NH2 (C-terminus assumed) [DiPGLa-H]
time to complete eradication of E. coli K88 [1]: ≤ 30 min
GMMIC Gram-negative [2]: 2.82 µM
GMMIC Gram-positive [3]: 5.66 µM
number of mice that survived ([4]; day 1, of 16 mice): 13
number of mice that survived ([4]; day 2, of 16 mice): 12
number of mice that survived ([4]; day 3, of 16 mice): 10
number of mice that survived ([4]; day 4, of 16 mice): 9
number of mice that survived ([4]; day 5, of 16 mice): 9
number of mice that survived ([4]; day 6, of 16 mice): 9
number of mice that survived ([4]; day 7, of 16 mice): 9
number of mice that survived ([4]; day 8, of 16 mice): 9
reduction of bacterial loads in the organs [4, 9]: 1,000 fold
increase of survival rate of mice ([5]; C57BL/6 male mice, intraperitoneal lethal Mu50, DiPGLa-H working concentration 64 µg/mL, 16 mice per group): 31%
number of mice that survived ([5]; day 1, of 16 mice): 12
number of mice that survived ([5]; day 2, of 16 mice): 11
number of mice that survived ([5]; day 3, of 16 mice): 10
number of mice that survived ([5]; day 4, of 16 mice): 8
number of mice that survived ([5]; day 5, of 16 mice): 6
number of mice that survived ([5]; day 6, of 16 mice): 6
number of mice that survived ([5]; day 7, of 16 mice): 5
number of mice that survived ([5]; day 8, of 16 mice): 5
reduction of bacterial loads in the organs [5, 9]: 100 fold
MBC A. baumannii ATCC19606 ([6]; ATCC19606, 4 h): 4 µM
MIC A. baumannii ATCC19606 ([6]; ATCC19606, 24 h): 1 µM
time to complete eradication of S. aureus Mu50 [7]: 6 h
MIC S. aureus Mu50 ([8]; pH 2): >32 µM
MIC S. aureus Mu50 ([8]; pH 4): >32 µM
MIC S. aureus Mu50 ([8]; pH 10): 32 µM
MIC S. aureus Mu50 ([8]; pH 12): 32 µM
increase in MIC after high temperature and pH treatments, S. aureus Mu50 ([8]; heat 100°C and pH 2-12 treatments): ≥ 4 fold
increase in MIC values by cations, S. aureus Mu50 ([8]; salts of Table S2): more than fourfold increase
